14 compounds from patent publication US7700638B2, “1,5,7-trisubstituted benzimidazole derivatives and their use for modulating the GABAA receptor complex” (N. V. Organon, priority 2003, dated 2010) can be followed below.

The term IC50 denotes the concentration that inhibits the measured activity by half.

Structures can show the parent of a compound that is named as a salt.

This assay has as its target GABA recognition site and the benzodiazepine modulatory unit (GABAA receptor complex), cerebral cortex membranes. The experiment in a line: In vitro inhibition of 3H-flunitrazepam (3H-FNM) binding. As to conditions: inhibition of specific binding of 3H-FNM (1 nM), cerebral cortex membranes from male Wistar rats, 40 min at 2° C. On the set-up: species or system rat. How it is done: In vitro Inhibition of ^3H-flunitrazepam (^3H-FNM) Binding
The GABA recognition site and the benzodiazepine modulatory unit can selectively be labelled with ^3H-flunitrazepam.
Preparations are performed at 0-4° C. unless otherwise indicated. Cerebral cortex from male Wistar rats (150-200 g) is homogenised for 5-10 sec in 20 ml […] (30 mM, pH 7.4) using an Ultra-Turrax homogeniser. The suspension is centrifuged at 27,000×g for 15 min and the pellet is washed three times with buffer (centrifuged at 27,000×g for 10 min). The washed pellet is homogenized in 20 ml of buffer and incubated on a water bath (37° C.) for 30 min to remove endogenous GABA and then centrifuged for 10 min at 27,000×g. The pellet is then homogenized in buffer and centrifuged for 10 min at 27,000×g. The final pellet is resuspended in 30 ml buffer and the preparation is frozen and stored at −20° C.
The membrane preparation is thawed and centrifuged at 2° C. for 10 min at 27,000×g. The pellet is washed twice with 20 ml 50 mM Tris-citrate, pH 7.1 using an Ultra-Turrax homogeniser and centrifuged for 10 min at 27,000×g. The final pellet is resuspended in 50 mM Tris-citrate, pH 7.1 (500 ml buffer per g of original tissue), and then used for binding assays. Aliquots of 0.5 ml tissue are added to 25 μl of test solution and 25 μl of ^3H-FNM (1 nM, final concentration), mixed and incubated for 40 min at 2° C. Non-specific binding is determined using Clonazepam (1 μM, final concentration). After incubation the samples are added 5 ml of ice-cold buffer and poured directly onto Whatman GF/C glass fibre filters under suction and immediately washed with 5 ml ice-cold buffer. The amount of radioactivity on the filters is determined by conventional liquid scintillation counting. Specific binding is total binding minus non-specific binding.
25-75% inhibition of specific binding must be obtained, before calculation of an IC50.
The test value will be given as IC50 (the concentration (μM) of the test substance which inhibits the specific binding of ^3H-FNM by 50%).
Co is specific binding in control assays, and
Cx is the specific binding in the test assay.
(The calculations assume normal mass-action kinetics).
Consider “7-[1-(3-Dimethylamino)pyrrolidinyl]-1-phenyl-5-trifluoromethylbenzimidazole trifluoroacetic acid salt [Example 94]”, for which the IC50 came out at 90 nM. This counts as double-digit nanomolar. In turn, `Nc1cccc(-c2cc(C=NO)cc3ncn(-c4ccccc4)c23)c1` [Example 6, 7-(3-Aminophenyl)-5-formyl-1-phenylbenzimidazole oxime] returned an IC50 of 4.2 nM. Compared with the last compound, the IC50 is about 21-fold lower. `N#Cc1cccc(C=Nc2cc(C(F)(F)F)cc3ncn(-c4ccccc4)c23)c1` [Example 10, 7-(N-(3-cyanobenzylidene)amino)-1-phenyl-5-trifluoromethylbenzimidazole] returned a 50% inhibitory concentration (IC50) of 18 nM. For the compound `OCc1cccc(-c2cc(C(F)(F)F)cc3ncn(-c4ccccc4)c23)c1` [Example 12, 7-(3-(Hydroxymethyl)phenyl)-1-phenyl-5-trifluoromethylbenzimidazole], the IC50 was 30 nM.

On to `COc1ccc(-c2cc(C#N)cc3ncn(-c4ccccc4)c23)cc1` [Example 23, 5-Cyano-7-(4-methoxyphenyl)-1-phenylbenzimidazole], for which the half-maximal inhibitory concentration (IC50) worked out at 38 nM.

In turn, `CCOC(=O)c1cc(-c2cccc(CN3CCN(C)CC3)c2)c2c(c1)ncn2-c1ccccc1` [Example 33, 5-Ethoxycarbonyl-7-(3-((1-methylpiperazin-4-yl)methyl)phenyl)-1-phenylbenzimidazole] registered an IC50 of 19 nM. To `CCN(CC)Cc1ccc(-c2cc(C#N)cc3ncn(-c4ccccc4)c23)cc1` [Example 41, 5-Cyano-7-(4-diethylaminomethylphenyl)-1-phenylbenzimidazole trifluoroacetic acid salt] belongs 27 nM; to `OCc1cc(-c2cccc(OC(F)(F)F)c2)c2c(c1)ncn2-c1ccccc1` [Example 51, 5-(Hydroxymethyl)-1-phenyl-7-(3-trifluoromethoxyphenyl)benzimidazole], 12 nM. `COC(=O)C=Cc1cc(C(F)(F)F)cc2ncn(-c3ccccc3)c12` [Example 57, 3-(3-Phenyl-6-trifluoromethyl-3H-benzimidazol-4-yl)acrylic acid methyl ester] came in with a concentration for half-maximal inhibition (IC50) of 46 nM. Turning to `CCN(CC)C(=O)C=Cc1cc(C(F)(F)F)cc2ncn(-c3ccccc3)c12` [Example 65, N,N-Diethyl-3-(3-phenyl-6-trifluoromethyl-3H-benzimidazol-4-yl)acrylamide], the IC50 worked out at 20 nM. Against the preceding compound, the IC50 is about 2.3-fold lower. Compound `FC(F)(F)c1cc(C#CCN2CCOCC2)c2c(c1)ncn2-c1ccccc1` [Example 80, 7-(3-(4-Morpholino)prop-1-ynyl)-1-phenyl-5-trifluoromethylbenzimidazole trifluoroacetic acid salt] registered an IC50 of 180 nM. The compound `CCN(CC)C(=O)CCc1cc(C(F)(F)F)cc2ncn(-c3ccccc3)c12` [Example 81, N,N-Diethyl-3-(3-Phenyl-6-trifluoromethyl-3H-benzimidazol-4-yl)propionamide] registered an IC50 of 38 nM. This IC50 lies about 4.7-fold lower than the previous one. The compound `CN(CCC#N)CCCCc1cc(C(F)(F)F)cc2ncn(-c3ccccc3)c12` [Example 88, 7-(4-((N-(2-Cyanoethyl)-N-methyl)amino)-1-butyl)-1-phenyl-5-trifluoromethylbenzimidazole trifluoroacetic acid salt] displayed an IC50 of 100 nM.

Regarding `FC(F)(F)c1cc(C#CCN2CC=CCC2)c2c(c1)ncn2-c1ccccc1` [Example 92, 1-Phenyl-7-(3-(1-(1,2,3,6-tetrahydropyridinyl))prop-1-ynyl)-5-trifluoromethylbenzimidazole], the concentration for half-maximal inhibition (IC50) turned out to be 48 nM.
